According to patent US8629239B2, “Methylocystis strain SB2 materials and methods” (Iowa State University Research Foundation, Inc., priority 2010, dated 2014):

Legend:
[1] = tested on: Methylocystis strain SB2; assay: Growth of Methylocystis strain SB2 on carbon sources; type: cell-based; settings: for growth on substrate as carbon source: substrates 0.05%, methanol 0.01-1% (v/v), acetate 0.01-0.5% (w/v), ethanol 0.05-1% (v/v); for OD600 reached (final / max OD600) / growth rate: NMS medium, 10 μM copper, 30° C.; for growth rate: exponential kinetics
Method: Methylocystis strain SB2 was incubated in 50 ml of NMS medium in 250 ml flask supplemented with 10 μM of copper as CuCl2. The flasks were incubated at 30° C. with shaking at 250 rpm. Cell growth was monitored by measuring OD600 using a Spectronic-20 (Milton Roy Company, USA).
Growth of strain SB2 on Alternative Carbon Sources: Growth on methanol (0.05% v/v) and methylamine, glucose, fructose, sucrose, galactose, xylose, arabinose, and maltose (all at a concentration of 0.05% w/v) was tested, as were the organic acids formate, pyruvate, succinate, malate, citrate and oxalate (all added as sodium salts at a concentration of 0.05% w/v).
At this pH, 99% of the added acetate exists as the dissociated form. It is believed that undissociated acetate is transferred across the cell membrane, thus the proton motive force is dissipated to transport acetate into the cell (Axe and Bailey, 1995), which inhibits microbial growth.

[2] = tested on: Methylocystis strain SB2; assay: Degradation of chlorinated hydrocarbons by Methylocystis strain SB2 grown on ethanol or methane; type: cell-based; settings: individual chlorinated hydrocarbons
Method: The ability of Methylocystis strain SB2 to degrade chlorinated hydrocarbon, including trichloroethylene (TCE), trans-dichloroethylene (t-DCE), vinyl chloride (VC), 1,1,1-trichloroethane (1,1,1-TCA), dichloromethane (DCM), and chloroform (CF), was compared when Methylocystis strain SB2 was grown on ethanol relative to when it was grown with methane.

[3] = dimensionless, at 30° C.; cited from earlier work
[4] = Abiotic loss of chlorinated ethenes from serum vials with sterile NMS medium; type: physicochemical; settings: 40 μM each in 5 ml sterile NMS medium; 216 hours
Method: Growth and degradation of chlorinated solvents. The growth of Methylocystis strain SB2 and degradation of the mixture of TCE, t-DCE, and VC were measured in three different conditions: methane, acetate, and acetate with acetylene (a selective inhibitor of both MMOs) (Prior and Dalton, 1985). The method used previously by Lee et al. (2006) and Yoon and Semrau (2008) was slightly modified for these assays. For all three growth conditions, Methylocystis strain SB2 was initially grown on methane to the mid-exponential phase (OD600 nm of 0.3-0.4). This cell suspension was flushed with compressed air as described above to remove residual methane and diluted to OD600<0.03 in 50 ml of fresh media in 250 ml Erlenmeyer flask. For growth on methane, methane was added to the headspace to an air:methane ratio of 1:1 and the cells were grown back to an OD600 of ca. 0.06. After the flask was flushed with compressed air as described earlier, five milliliter aliquots were transferred to serum vials specially fabricated to measure growth at OD600 over time as described earlier (Lee et al., 2006). Teflon-coated butyl-rubber stoppers (National Scientific Co., Duluth, Ga.) were used to seal the serum vials. After the serum vials were securely sealed, 5 ml of the air in headspace was replaced with 5 ml of methane to ensure sufficient methane for growth. For growth on acetate, 1 mM of sodium acetate (Im et al., 2010) instead of methane was added to the diluted cell suspension in 250-ml Erlenmeyer flasks. […] The growth of Methylocystis strain SB2 was monitored until the cell growth was no longer observed. The initial and final concentration of TCE, t-DCE, and VC were measured with HP5890 Series II gas chromatograph equipped with a 75 m DB-624 column with 0.53 mm internal diameter (J&W Scientific Co.). […] TCE and t-DCE were detected with an electron capture detector (ECD) with injector, oven, and detector temperatures set to 160, 120, and 250° C., respectively. VC was detected with a flame ionization detector (FID) with injector, oven, and detector temperatures set to 140, 120, and 250° C., respectively.

[5] = tested on: Methylosinus trichosporium OB3b expressing pMMO; settings: 50 μM each of VC, t-DCE, and TCE; 110 hours of growth on methane; Lee et al., 2006; cited from earlier work
[6] = tested on: Methylocystis strain SB2; assay: Nitrogen source utilization by strain SB2 with methane as carbon source; type: cell-based; settings: methane as the carbon source
Method: Many nitrogen sources were tested with methane as the carbon source: nitrate (as potassium nitrate), ammonia (as ammonium chloride), L-alanine, L-serine, L-isoluecine, L-proline, L-methionine, L-glutamine, L-asparagine, L-lysine, L-glycine, L-histidine, and L-arginine. […] The presence of nifH was confirmed using PCR using specific primers for nifH (Auman, et al., 2001; Zehr & McReynolds, 1989).

[7] = tested on: Methylocystis strain SB2; assay: Degradation of chlorinated ethenes by Methylocystis strain SB2 grown on methane or acetate; type: cell-based; settings: SB2 grown on CH3COOH + C2H2 (acetylene); 40 μM each of TCE, t-DCE, and VC; 216 hours
Method: Saturated stock solutions were prepared for TCE and t-DCE as described by Chang and Alvarez-Cohen (1996). Hamilton 1700 series gas-tight syringes (Hamilton, Reno, Nev.) were used to take aliquots from the stock solutions. Gaseous compounds, i.e., methane and VC, were transferred to gas bags before use. Aliquots were taken with Precision Lok gas-tight syringes purchased from Precision Sampling Corp (Baton Rouge, La.). The amount of chlorinated solvents to be added was calculated considering dimensionless Henry's constants at 30° C. […]
The method used previously by Lee et al. (2006) and Yoon and Semrau (2008) was slightly modified for these assays. […] The growth of Methylocystis strain SB2 was monitored until the cell growth was no longer observed. The initial and final concentration of TCE, t-DCE, and VC were measured with HP5890 Series II gas chromatograph equipped with a 75 m DB-624 column with 0.53 mm internal diameter (J&W Scientific Co.). […] TCE and t-DCE were detected with an electron capture detector (ECD) with injector, oven, and detector temperatures set to 160, 120, and 250° C., respectively. VC was detected with a flame ionization detector (FID) with injector, oven, and detector temperatures set to 140, 120, and 250° C., respectively.

[8] = tested on: Methylocystis strain SB2; assay: Growth yield and carbon conversion efficiency, Methylocystis strain SB2; type: cell-based; settings: NMS, 10 μM copper, standard error in parentheses
Method: For Table 1, the molar growth yield (g dry cell▪(mol substrate^−1)) and the efficiency of carbon conversion to cell material (g cell carbon▪(g substrate carbon)^−1) were determined in triplicate 5 ml of NMS medium supplemented with 10 μM of copper as CuCl2 using specially constructed 32.5 ml vials containing a CH4/air mixture (1:2 ratio in the headspace), or 0.10% (w/v) of sodium acetate as a sole carbon source. CH4 and acetate concentrations were measured using gas chromatography equipped with a FID (HP 5890 Series II) and ion chromatography (Dionex DX100, Sunnyvale, Calif.), respectively. Cell growth was monitored by measuring OD600 using a Spectronic-20 spectrometer (Milton Roy Company, USA). Turbidity was correlated to protein concentration using the Bio-Rad Protein Assay (Bio-Rad Laboratories, Richmond, Calif.) with bovine serum albumin (BSA) as the standard following manufacturer's instructions. To estimate the carbon content of biomass it was assumed that dry biomass was 50% protein, and C4H8O2N was the biomass elemental composition (Leak and Dalton, 1986).

[9] = tested on: Methylocella silvestris BL2; settings: Dedysh, et al. (2005); cited from earlier work
[10] = tested on: Methylocystis echinoides IMET 10491T; settings: growth on acetate; Belova et al., 2010; cited from earlier work
[11] = tested on: Methylocystis heyeri H2T; settings: growth on acetate; Belova et al., 2010; cited from earlier work
[12] = tested on: Methylocystis strain H2s; settings: growth on acetate; Belova et al., 2010; cited from earlier work
[13] = tested on: Methylocapsa aurea KYGT; settings: growth on acetate; cited from earlier work
[14] = tested on: Methylocystis strain SB2; assay: Growth of Methylocystis strain SB2 in the presence of chlorinated ethenes; type: cell-based; settings: grown on methane in the absence of chlorinated ethenes
Method: Methylocystis strain SB2 was initially grown on methane (1:1 methane-to-air ratio) to the mid-exponential phase (OD600 of 0.3-0.4 as measured using a Spectronic 20 spectrometer (Milton Roy Company, USA)). […] The cultures were then diluted to an OD600 of 0.06 with fresh NMS medium. Five ml aliquots were added to serum vials specially fabricated to measure growth as OD600 over time and respective growth substrates were added. For addition of methane, 5 ml of headspace was replaced with >99.99% methane after sealing the vials for a final concentration of 15% v/v in the headspace. […] Growth was monitored by measuring absorbance at 600 nm (OD600).
For all three growth conditions, Methylocystis strain SB2 was initially grown on methane to the mid-exponential phase (OD600 nm of 0.3-0.4). This cell suspension was flushed with compressed air as described above to remove residual methane and diluted to OD600<0.03 in 50 ml of fresh media in 250 ml Erlenmeyer flask. For growth on methane, methane was added to the headspace to an air:methane ratio of 1:1 and the cells were grown back to an OD600 of ca. 0.06. […] The growth of Methylocystis strain SB2 was monitored until the cell growth was no longer observed.

CO [methanol]
growth on substrate as carbon source [1]: no growth

ClCCl [DCM, dichloromethane]
degradation by strain SB2 grown on ethanol [2]: not | degradation by strain SB2 grown on methane [2]: not | Henry's constants [3]: 0.125

Cl/C=C/Cl [t-DCE, trans-dichloroethylene]
Abiotic loss, % (range of duplicate samples) [4]: 0 (0) % | degradation by strain SB2 grown on ethanol [2]: degraded | degradation by strain SB2 grown on methane [2]: degraded | % degraded [5]: 98% | Henry's constants [3]: 0.474

CC[C@H](C)[C@H](N)C(=O)O [L-isoleucine]
utilization as nitrogen source [6]: able to utilize

N [ammonium]
utilization as nitrogen source [6]: able to utilize

ClC=C(Cl)Cl [TCE, trichloroethylene]
% Chlorinated ethene degraded (range of duplicate samples) [7]: 3.3% | Abiotic loss, % (range of duplicate samples) [4]: 5.2% | degradation by strain SB2 grown on ethanol [2]: degraded | degradation by strain SB2 grown on methane [2]: degraded | % degraded [5]: 35% | Henry's constants [3]: 0.458

ClC(Cl)Cl [CF, chloroform]
degradation by strain SB2 grown on ethanol [2]: not | degradation by strain SB2 grown on methane [2]: degraded | Henry's constants [3]: 0.189

CC(=O)O [acetate]
OD600 reached (final / max OD600) [1]: 0.26 | growth on substrate as carbon source [1]: grew | Efficiency of carbon conversion [8]: 22.1 (±0.2) % | Growth yield [8]: 12.0 (±0.13) g cell dry weight ▪(mol substrate^−1 | Efficiency of carbon conversion [9]: 40.1 (±2.43) % | Growth yield [9]: 20.5 (±1.24) g cell dry weight ▪(mol substrate^−1 | max OD410 [10]: 0.09 | max OD410 [11]: 0.14 | max OD410 [12]: ~0.23 | max OD600 [13]: 0.3

C [methane]
OD600 reached (final / max OD600) [1]: 0.83 | growth rate [1]: 0.052 ± 0.004 h⁻¹ | Efficiency of carbon conversion [8]: 12.3 (±0.5) % | Growth yield [8]: 3.13 (±0.12) g cell dry weight ▪(mol substrate^−1 | specific growth rate [14]: 0.057 h⁻¹ | Efficiency of carbon conversion [9]: 13.2 (±0.698) % | Growth yield [9]: 3.59 (±0.104) g cell dry weight ▪(mol substrate^−1

NC(=O)CC[C@H](N)C(=O)O [L-glutamine]
utilization as nitrogen source [6]: able to utilize

CC(Cl)(Cl)Cl [1,1,1-TCA, 1,1,1-trichloroethane]
degradation by strain SB2 grown on ethanol [2]: degraded | degradation by strain SB2 grown on methane [2]: degraded | Henry's constants [3]: 0.804

O=C(O)[C@@H]1CCCN1 [L-proline]
utilization as nitrogen source [6]: able to utilize

O=[N+]([O-])O [nitrate]
utilization as nitrogen source [6]: able to utilize

CCO [ethanol]
OD600 reached (final / max OD600) [1]: 0.45 | growth rate [1]: 0.022 ± 0.002 h⁻¹ | growth on substrate as carbon source [1]: grew

C=CCl [VC, vinyl chloride]
Abiotic loss, % (range of duplicate samples) [4]: 1.8% | degradation by strain SB2 grown on ethanol [2]: degraded | degradation by strain SB2 grown on methane [2]: degraded | % degraded [5]: 97% | Henry's constants [3]: 1.262
